This series has as its system sensitized mice. The series is described as follows: Preliminary dose-response study of BUD in sensitized mice, histopathologic examination. The class given is in vivo. As to the method: The dose of BUD chosen was based on preliminary dose-response studies with 5 to 50 μg of BUD as follows.
Each day, 5, 10, 15, 20 or 50 μg of BUD was administered to groups of sensitized mice, and the dose-dependent effects on the inflammatory parameters were evaluated.
The tissues were removed and fixed with 10% phosphate buffered formalin. Tissue samples were taken from the skin, spleen, liver, gastrointestinal tract, and kidney. The tissues were embedded in paraffin, sectioned at 5 μm thickness and stained with hematoxylin and eosin and analyzed using light microscopy.
Coded slides were examined by a pathologist in a blinded fashion for evidence of inflammatory changes, including epithelial hyperplasia and perivascular edema and accumulation of eosinophils, neutrophils, and mononuclear inflammatory cells. Each of the parameters evaluated was given an individual number score. Objective measurements of histopathological changes include aggregation of eosinophils around blood vessels (perivascular), accumulation of other inflammatory cells, presence of desquamation and hyperplasia of the epithelium, and infiltration of inflammatory cells.

With `CCCC1O[C@@H]2C[C@H]3[C@@H]4CCC5=CC(=O)C=C[C@]5(C)[C@H]4[C@@H](O)C[C@]3(C)[C@]2(C(=O)CO)O1` (stereo partly shown) [Daily BUD, budesonide], the “granulomas or abnormalities in any of the tissues evaluated” value is on record as “no granulomas or abnormalities”.

Source of the values: patent US12251469B2, “Sterically stabilized carrier compositions for treating a mammal” (VGSK Technologies, Inc., priority 2015, dated 2025).
